Data: PubChem BioAssay AID179 (DTP/NCI, 2004)
Activity calls are given as the source filed them.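 How the source made its calls: active means compounds giving half or more protection of infected cells from virus-caused growth loss, again on retest; inactive means the rest.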 Where a SMILES comes first, the peptide text is derived from it.

System: CEM cells HIV-1 protection, formazan growth assay
Assay: NCI AIDS Antiviral Assay
Conditions: for IC50: measured here: growth of uninfected CEM cells
Summary of the method: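 Protection of CEM cells against HIV-1 measured as cell growth via soluble formazan read-out, with five concentrations tested on both infected and uninfected cells; failure to protect may reflect toxicity.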

| Compound | EC50 [µM] | IC50 [µM] | outcome |
| --- | --- | --- | --- |
| c1ccc2[nH]c3[nH]c4[nH]c5ccccc5[nH]c4[nH]c3[nH]c2c1 | > 50.1 | > 50.1 | – |
| COc1c(OP2(=S)OCC(C)(C)CO2)cnn(C2CCCCC2)c1=O | > 200 | 24.5 | – |
| COc1nc(N)c(N=O)c(OCc2ccccc2)n1 | > 200 | 3.98 | – |
| CN(C)CCCn1c(-c2ccc(Br)cc2)csc1=Nc1ccccc1 | > 200 | 9.77 | – |
| Cc1c(C(=O)CC(=O)C(=O)NC2C3CC4CC(C3)CC2C4)[n+](=O)c2ccccc2n1[O-] (stereo not given) | > 12.3 | > 12.3 | – |
| CCOC(=O)C1=c2[nH]c(O)c(C(=O)OCC)c2=NC1=O | > 5.13 | > 5.13 | – |
| CCOC(=O)C1C(=O)C(=O)N2CCc3c([nH]c4ccccc34)C12 (stereo not given) | > 263 | 166 | – |
| NS(=O)(=O)c1nnc(NS(=O)(=O)c2ccccc2C(=O)O)s1 | > 200 | > 200 | – |
| COc1c(Cl)cc(Cl)c(CCCCCCCC(=O)O)c1Cl | > 100 | > 100 | – |
| O=S(=O)(O)c1ccc(Sc2ccc(S(=O)(=O)O)cc2)cc1 | > 631 | > 631 | – |
| C=C(C)C1CC2=C(O1)C(=O)c1ccccc1C2=O (stereo not given) | > 200 | 2 | – |
| O=C1CNC(=O)c2c(ncn2C2OC(CO)C(O)C2O)N1 (stereo not given) | > 214 | > 214 | – |
| N#Cc1c(=O)c2cc([N+](=O)[O-])ccc2n2c1[nH]c1ccccc12 | > 200 | 3.55 | – |
| CN1COCN=C1NC#N | > 631 | > 631 | – |
| CC(C)(C)NC(=O)N1N=C(c2ccccc2)C1c1ccccc1 (stereo not given) | > 200 | 26.9 | – |
| CSCCCSC1CCCCCCCCCCC1=O (stereo not given) | > 200 | > 200 | – |
| O=C(CC(O)(C(F)(F)F)C(F)(F)F)c1ccc(Cl)cc1 | > 200 | > 200 | – |
| O=S(=O)(F)c1ccc(C[P+](c2ccccc2)(c2ccccc2)c2ccccc2)c(Cl)c1 | > 200 | 45.7 | – |
| CCC[CH2][Sn]1([CH2]CCC)[N](S(=O)(=O)c2ccc(C)cc2)c2ccccc2[N]1S(=O)(=O)c1ccc(C)cc1 | > 2 | 0.309 | – |
| O=C1C/C(=C\c2ccccc2)C(=O)c2ccccc2N1 | > 200 | 12.6 | – |

| Compound | EC50 [µM] | IC50 [µM] | outcome |
| --- | --- | --- | --- |
| O=c1[nH]nc(Nc2ccccc2)c2nnn(Cc3ccccc3)c12 | – | – | inactive |
| CCOCN1COCN(C)C1=O | > 1450 | > 1450 | – |
| COC(=O)C12CCC(=O)N1CC(=O)c1c2[nH]c2ccccc12 (stereo not given) | – | – | inactive |
| O=C1CSC(/C=C/c2ccccc2)N1c1ccc(-c2ccc(-n3c(-c4ccccc4)nc4ccccc4c3=O)cc2)cc1 (stereo not given) | > 200 | 28.2 | – |
| COc1ccc(S(=O)Cc2ccc(C(=O)O)cc2[N+](=O)[O-])cc1 (stereo not given) | > 741 | 631 | – |
| N#Cc1nc(NC(=O)c2ccccc2C(=O)O)c(C#N)[nH]1 | > 200 | > 200 | – |
| CN1[C@H]2C=CC(=O)[C@]1(Cl)[C@H]1C(=O)N(c3ccccc3)C(=O)[C@@H]21 | > 162 | 3.89 | – |
| NC(=O)CCC(NC(=O)c1ccccc1SC(=O)CCCC[n+]1ccccc1)C(N)=O (stereo not given) | 20.4 | > 200 | – |
| Cc1cccc(C)c1NC(=O)C(=O)CC(=O)c1cccc([N+](=O)[O-])c1 | > 525 | > 525 | – |
| Cc1cccc(N=Nc2c(C)nn(C(=O)c3ccccc3Cl)c2C)c1 | – | – | inactive |
| CC1=Cc2cc3[n-]c(cc4nc(cc5[n-]c(cc1n2)c(C)c5CCC(=O)O)C(CCC(=O)O)=C4C)cc3C.[Cu+2] | > 8.71 | 7.59 | – |
| CC1CC(C)C(=O)C(C(=O)CC2CC(=O)NC2=O)C1 (stereo not given) | > 200 | > 200 | – |
| CN1C(=O)C(C)(C)NS1(=O)=O | – | – | inactive |
| CC1(C)C(OC(=O)c2ccccc2)C[C@]23CCC[C@](C)(C[C@@H](O)C12)C3 (stereo not given in full) | > 200 | 24 | – |
| NC(=O)C1=CN(Cc2ccc(F)cc2)c2ccccc2C1S(=O)(=O)O (stereo not given) | – | 245 | inactive |
| CCOC(=O)/C(=C/c1ccc2ccccc2c1)P(=O)(OCC)OCC | > 100 | 24 | – |
| CC(=O)Oc1c(Br)ccc2cc(C(Br)Br)c(C(=O)c3ccccc3)nc12 | > 5.01 | > 5.01 | – |
| Cc1ccc(C)c(NC(=O)CC2Sc3ccccc3NC2=O)c1 (stereo not given) | > 30.2 | > 30.2 | – |
| CCC(C)C(N)C(=O)NCC(=O)NC(CCCN=C(N)N)C(=O)NC(CC(N)=O)C(=O)NC(CC(C)C)C(=O)NC(CC(C)C)C(=O)NC(C(=O)NC(CCC(N)=O)C(=O)NC(C(=O)NCC(=O)O)C(C)CC)C(C)O (stereo not given) (H-IGRNLLTQIG-OH; configuration not given here) | – | – | inactive |
| CC1=C(C(=O)Nc2ccc([N+](=O)[O-])cc2)C(c2ccccc2O)C(C(=O)Nc2ccc([N+](=O)[O-])cc2)=C(C)N1 | > 49 | 30.9 | – |

| Compound | EC50 [µM] | IC50 [µM] | outcome |
| --- | --- | --- | --- |
| CN(C)c1ccc(C2SCC(=O)N2NS(=O)(=O)c2cccc(C(=O)O)c2)cc1 (stereo not given) | > 200 | 79.4 | – |
| CCC(C)C(NC(=O)C(CCCN=C(N)N)NC(=O)C(CC(N)=O)NC(=O)C(Cc1cnc[nH]1)NC(=O)C(N)CC(C)C)C(=O)NC(C(=O)NC(CC(C)C)C(=O)NC(C(=O)NC(Cc1cnc[nH]1)C(=O)O)C(C)O)C(C)CC (stereo not given) (H-LHNRIILTH-OH; configuration not given here) | > 44.7 | > 44.7 | – |
| O=C1OC(C2(O)OC(=O)c3ccccc32)c2ccccc21 (stereo not given) | > 200 | > 200 | – |
| O=CN1CCN(C=O)C(O)C1O (stereo not given) | > 200 | > 200 | – |
| Cc1noc(C)c1C1=CCCCc2ccccc21 | > 30.2 | > 30.2 | – |
| O=C(Nc1ccc(S(=O)(=O)N[C@@H](C(=O)O)c2ccccc2)cc1)c1ccc(F)cc1 | – | – | inactive |
| COc1ccc(/C=N/n2cnc3c(sc(=S)n3-c3ccccc3)c2=O)cc1 | > 6.92 | > 6.92 | – |
| COc1cccc2c1C(=O)c1c(O)c3c(c(O)c1C2=O)C[C@@](O)(C(=O)CO)C[C@@H]3OC1CC(N)C(OC)C(C)O1 (stereo not given in full) | > 0.2 | 0.0195 | – |
| CC1=CC(=C(c2cc(C)c(O)c(C(=O)O)c2)c2cc(C)c(O)c(C(=O)O)c2)C=C(C(=O)O)C1=O | – | – | inactive |
| CC1(C(=O)O)CCOc2ccccc21 (stereo not given) | – | – | inactive |
| Cc1cn(C2CCC(CO)(CO)CC2O)c(=O)[nH]c1=O (stereo not given) | > 871 | > 871 | – |
| O=C1CSSCC(=O)NCCCN1 | > 45.7 | > 45.7 | – |
| CNc1c(Br)cc(/C=C2\C=Cc3ccccc32)cc1Br | > 9.55 | > 9.55 | – |
| CCOC(=O)C(O)(NC(=O)c1ccc(F)cc1)C(F)(F)F (stereo not given) | > 200 | > 200 | – |
| O=c1ccn(C/C=N/OCCP(=O)(O)O)c(=O)[nH]1 | > 200 | > 200 | – |
| COC(=O)c1c(-c2ccccc2)sc(-c2cccc3ccccc23)c1C(=O)OC | – | – | inactive |
| COc1ccccc1N=Nc1c(S(=O)(=O)O)cc2cc(NC(=O)Nc3ccc4c(O)c(N=Nc5ccc(S(=O)(=O)O)cc5C)c(S(=O)(=O)O)cc4c3)ccc2c1O | – | – | active |
| O=C1/C(=C/c2cccc(Br)c2)CSC/C1=C\c1cccc(Br)c1 | > 200 | 2.88 | – |
| c1cc(NC2=NCCO2)c2c(c1)OCO2 | > 200 | > 200 | – |
| COC(=O)C1=CN(C2CCCCC2)C2(c3ccccc3)c3ccccc3C(=O)OC(=O)C12 (stereo not given) | 132 | > 200 | – |
